According to article PMC7927014, “Novel Small Molecule Hsp90/Cdc37 Interface Inhibitors Indirectly Target K-Ras-Signaling” (Cancers, 2021):

How the values were obtained:
[1] = tested on: HIF-1α; assay: Western blotting of HIF-1α in nuclear extracts; assay type: cell-based; conditions: Western blot of nuclear extracts, 24 h; K-RasG12V-transfected HEK and MDA-MB-231 cells; conglobatin A 5 or 10 μM, 17-AAG 2 μM
Experimental: (§1) The cells in the RIPA buffer were placed on ice for 20 min, and were then sonicated in ice cold water for 5 min. […] Equal amounts of protein were separated by 10% SDS-PAGE, and were then transferred onto a nitrocellulose membrane (cat. no. NBA 083C001EA, Protran) using a wet transfer system (Bio-Rad) or semidry Transferblot Turbo Transfer System (Bio-Rad). After the transfer, the membranes were blocked for 30 min in 5% skimmed milk dissolved in 1× TBST, and then incubated with 1:2000 primary antibodies in 5% BSA in TBST at 4 °C overnight.
(§2) The next day, the membranes were washed three times in TBST for 10 min, and then incubated with secondary antibodies (1:5000) diluted in 5% skimmed milk in TBST for 1 h at RT. […] All of the antigens and molecular weights in kDa are labelled next to the blots on the figures. Uncropped Western blot data are attached as Figure S6.

[2] = tested on: Gal3; assay: Western blotting of galectin-3; assay type: cell-based; conditions: Western blot, 24 h; K-RasG12V-transfected HEK and MDA-MB-231 cells
Experimental: The cells were trypsinized, washed with PBS, and lysed in RIPA buffer (cat no. 89900, ThermoFisher Scientific) containing protease and phosphatase inhibitors (cat. no. A32959, ThermoFisher Scientific) and 1 mM phenylmethylsulfonyl fluoride (PMSF). The cells in the RIPA buffer were placed on ice for 20 min, and were then sonicated in ice cold water for 5 min. The lysates were centrifuged at 4 °C, and their protein was quantified using a BCA kit (cat. no. 23225, ThermoFisher Scientific). Equal amounts of protein were separated by 10% SDS-PAGE, and were then transferred onto a nitrocellulose membrane (cat. no. NBA 083C001EA, Protran) using a wet transfer system (Bio-Rad) or semidry Transferblot Turbo Transfer System (Bio-Rad). After the transfer, the membranes were blocked for 30 min in 5% skimmed milk dissolved in 1× TBST, and then incubated with 1:2000 primary antibodies in 5% BSA in TBST at 4 °C overnight. […]
The next day, the membranes were washed three times in TBST for 10 min, and then incubated with secondary antibodies (1:5000) diluted in 5% skimmed milk in TBST for 1 h at RT. […] The protein bands were detected with a ChemiDoc MP instrument (Bio-Rad) after treatment with an ECL reagent (cat. no. 170-5061, BioRad). […]

[3] = tested on: H-RasG12V nanoclustering; assay: H-RasG12V nanoclustering-FRET (FLIM-FRET) in HEK cells; assay type: cell-based; conditions: 24 h, conglobatin A 2 μM, salinomycin 1.3 μM, CAY10585 10 μM
Experimental: In total, 80,000 HEK cells were seeded in 12-well plates containing sterilized 16-mm coverslips and 1 mL medium. The next day, the cells were transfected using jetPRIME or FuGENE HD transfection reagent. For the donor fluorophore-only samples, the cells were transfected with 500 ng mGFP-tagged RasG12V plasmid. For the nanoclustering-FRET pair samples, the cells were transfected with both the donor and acceptor constructs, i.e., pmGFP- and pmCherry- RasG12V at a plasmid ratio of 1:3, respectively, and a total of 800 ng plasmids. The next day, the cells were treated with either 0.1% DMSO vehicle control or the indicated concentrations of compounds diluted in DMEM or RPMI medium for 24 h. For the gene silencing studies, the cells were transfected with the indicated amounts of siRNAs, together with the FRET pair constructs. The plasmids and siRNA were diluted in the same jetPRIME transfection buffer, followed by the addition of jetPRIME. After 48 h of transfection, the cells were fixed in 4% paraformaldehyde for 10 to 15 min, before being mounted onto slides with Mowiol 4–88 (cat. no. 81381, Sigma-Aldrich). The lifetime of the mGFP donor fluorophore was measured using a fluorescence microscope (Zeiss AXIO Observer D1) equipped with a fluorescence lifetime imaging attachment (Lambert Instruments), as described previously in detail. The apparent FRET efficiency (Eapp) was calculated as Eapp = (1 − τDA/τD) × 100%, with the measured fluorescence lifetimes τDA of the FRET sample and the τD of the donor-only sample.

[4] = design: method as in PMID 24927996; conditions: mice, 900 mg/kg; cited from earlier work
[5] = tested on: Hsp90, Hsp70; assay: Western blotting of Hsp90 and Hsp70 (heat shock response); assay type: cell-based; conditions: Western blot, 24 h; four cancer cell lines; 17-AAG 2 μM
Experimental: as §1, §2

Row | SMILES | nuclear levels of HIF-1α [1] | Gal3 levels [2] | H-RasG12V nanoclustering-FRET [3] | acute toxicity [4] | induction of Hsp90 or Hsp70 expression (heat shock response) [5]
1 | C/C1=C\[C@H](C)C[C@H](C)[C@H](Cc2cnco2)OC(=O)/C(C)=C/[C@H](C)C[C@H](C)[C@H](Cc2cnco2)OC1=O [conglobatin A, reference compound] | decreased the nuclear levels of HIF-1α | dose-dependently reduced | not H-RasG12V-nanoclustering | well tolerated | 
2 | CCOc1ccc(C(=O)c2ccc(O)c(O)c2O)cc1 [×1540, 2,3,4-TRIHYDROXY-4'-ETHOXYBENZOPHENONE] |  |  |  |  | not inducing
3 | N=C(CSS(=O)(=O)O)NCC12CC3CC(CC(C3)C1)C2 [×6506, [({N-[(adamantan-1-yl)methyl]carbamimidoyl}methyl)sulfanyl]sulfonic acid] |  |  |  |  | not inducing
